Results from patent publication US10538567B2, “Compounds as peptidic trigonal GLP1/glucagon/GIP receptor agonists” (priority 2016, dated 2020).
Numbered stars: 1 amine (or outer) side, 2 acyl side, 3 side chain; on linkers, the order of the positions; unused ones are H or OH. Square brackets hold non-standard residues; d marks the D form. Side chains are listed from the residue outwards. Peptide text beside a SMILES is read from it. * marks the point of attachment. γGlu = O=C(O)[C@H](CCC(=O)[*:2])N[*:1]; Stearoyl = CCCCCCCCCCCCCCCCCC(=O)*; Palmitoyl = CCCCCCCCCCCCCCCC(=O)*; Aib = CC(C)(N)C(=O)O

Tested on: not listed separately
Assay: Thioflavin T (ThT) assay for physical stability (fibrillation)
Assay type: physicochemical
Conditions: 3 mg/ml, 100 mM acetate pH 4.5 with m-cresol, 37° C. shaking
From the text: Low physical stability of a peptide solution may lead to amyloid fibril formation, which is observed as well-ordered, thread-like macromolecular structures in the sample, which eventually may lead to gel formation. Thioflavin T (ThT) is widely used to visualize and quantify the presence of misfolded protein aggregates. [Biancalana et al. (2010) Biochimica et Biophysica Acta. 1804 (7): 1405-1412]. […] Enzymol. 309, 274-284]. The time course for fibril formation often follows the characteristic shape of a sigmoidal curve and can be separated into three regions: a lag phase, a fast growth phase, and a plateau phase.
The typical fibril formation process starts with the lag phase in which the amount of partially folded peptide turned into fibrils is not significant enough to be detected. The lag-time corresponds to the time the critical mass of the nucleus is built. Afterwards, a drastic elongation phase follows and fibril concentration increases rapidly.
Investigations were carried out to determine fibrillation tendencies under stress conditions by shaking at 37° C. within Fluoroskan Ascent FL.
For the tests in Fluoroskan Ascent FL, 200 μL sample were placed into a 96 well mictrotiter plate PS, flat bottom, Greiner Fluotrac No. 655076. Plates were sealed with Scotch Tape (Quiagen). Samples were stressed by continuous cycles of 10 s shaking at 960 rpm and 50 s rest period at 37° C. The kinetic was monitored by measuring fluorescence intensity every 20 minutes.
Peptides were diluted in a buffer system to a final concentration of 3 mg/ml. 20 μL of a 10.1 mM ThT solution in H2O were added to 2 mL of peptide solution to receive a final concentration of 100 μM ThT. For each sample eight replicates were tested.
Tht buffer system A) 100 mM Acetate pH 4.5 including m-cresol (100 mM Natriumacetat trihydrat, pH adjustment using 2N CH3COOH, 2.7 mg/mL m-cresol) Tht buffer system B) 100 mM citrate buffer pH 6.0
Lag time in hours in Thioflavin T (ThT) assay of peptide samples was determined in ThT buffer system A as described in Methods.

Lag time before increase [h] | Structure (SMILES)
>45 | CCCCCCCCCCCCCCCC(=O)N[C@@H](CCC(=O)NCCCC[C@H](NC(=O)[C@H](CC(C)C)NC(=O)[C@H](CCCCN)NC(=O)[C@H](CO)NC(=O)[C@H](CC(C)C)NC(=O)[C@H](CC(=O)O)NC(=O)[C@H](CO)NC(=O)[C@@H](NC(=O)[C@H](Cc1ccccc1)NC(=O)[C@@H](NC(=O)CNC(=O)[C@H](Cc1c[nH]cn1)NC(=O)C(C)(C)NC(=O)[C@@H](N)Cc1c[nH]cn1)[C@@H](C)O)[C@@H](C)O)C(=O)N[C@@H](CCC(=O)O)C(=O)N[C@@H](CCC(=O)O)C(=O)N[C@@H](CCC(N)=O)C(=O)N[C@@H](CCCNC(=N)N)C(=O)N[C@@H](CCC(N)=O)C(=O)NC(C)(C)C(=O)N[C@@H](CCC(=O)O)C(=O)N[C@@H](Cc1ccccc1)C(=O)N[C@H](C(=O)N[C@@H](CCC(=O)O)C(=O)N[C@@H](Cc1c[nH]c2ccccc12)C(=O)N[C@@H](CC(C)C)C(=O)N[C@@H](CCCCN)C(=O)N[C@@H](C)C(=O)N[C@H](C)C(=O)NCC(=O)N1CCC[C@H]1C(=O)N1CCC[C@H]1C(=O)N[C@@H](CO)C(=O)NC(C)(C)C(=O)N[C@@H](CCCCN)C(=O)N1CCC[C@H]1C(=O)N1CCC[C@H]1C(=O)N1CCC[C@H]1C(=O)N[C@@H](CCCCN)C(N)=O)[C@@H](C)CC)C(=O)O [SEQ ID NO: 16, H-Aib-H-G-T-F-T-S-D-L-S-K-L-K[gGlu-Palm]-E-E-Q-R-Q-Aib-E-F-I-E-W-L-K-A-dAla-G-P-P-S-Aib-K-P-P-P-K-NH2] (H-H[Aib]HGTFTSDLSKLK([γGlu-Palmitoyl])EEQRQ[Aib]EFIEWLKA[dA]GPPS[Aib]KPPPK-NH2)
>45 | CCCCCCCCCCCCCCCCCC(=O)N[C@@H](CCC(=O)NCCCC[C@H](NC(=O)[C@H](CC(C)C)NC(=O)[C@H](CCCCN)NC(=O)[C@H](CO)NC(=O)[C@H](CC(C)C)NC(=O)[C@H](CC(=O)O)NC(=O)[C@H](CO)NC(=O)[C@@H](NC(=O)[C@H](Cc1ccccc1)NC(=O)[C@@H](NC(=O)CNC(=O)[C@H](Cc1c[nH]cn1)NC(=O)C(C)(C)NC(=O)[C@@H](N)Cc1c[nH]cn1)[C@@H](C)O)[C@@H](C)O)C(=O)N[C@@H](CCC(=O)O)C(=O)N[C@@H](CCC(=O)O)C(=O)N[C@@H](CCC(N)=O)C(=O)N[C@@H](CCCNC(=N)N)C(=O)N[C@@H](CCC(N)=O)C(=O)NC(C)(C)C(=O)N[C@@H](CCC(=O)O)C(=O)N[C@@H](Cc1ccccc1)C(=O)N[C@H](C(=O)N[C@@H](CCC(=O)O)C(=O)N[C@@H](Cc1c[nH]c2ccccc12)C(=O)N[C@@H](CC(C)C)C(=O)N[C@@H](CCCCN)C(=O)N[C@@H](C)C(=O)N[C@H](C)C(=O)NCC(=O)N1CCC[C@H]1C(=O)N1CCC[C@H]1C(=O)N[C@@H](CO)C(=O)NC(C)(C)C(=O)N[C@@H](CCCCN)C(=O)N1CCC[C@H]1C(=O)N1CCC[C@H]1C(=O)N1CCC[C@H]1C(=O)N[C@@H](CCCCN)C(N)=O)[C@@H](C)CC)C(=O)O [SEQ ID NO: 17, H-Aib-H-G-T-F-T-S-D-L-S-K-L-K[gGlu-Stea]-E-E-Q-R-Q-Aib-E-F-I-E-W-L-K-A-dAla-G-P-P-S-Aib-K-P-P-P-K-NH2] (H-H[Aib]HGTFTSDLSKLK([γGlu-Stearoyl])EEQRQ[Aib]EFIEWLKA[dA]GPPS[Aib]KPPPK-NH2)

Tested on: female diabetic db/db mice
Assay: Acute effects after s.c. treatment on blood glucose in non-fasting female diabetic db/db mice
Assay type: in vivo
Conditions: single 30 μg/kg s.c.
Protocol: Female healthy, lean BKS.Cg-(lean)/OlaHsd and diabetes-prone, obese BKS.Cg-+Lepr^db/+Lepr^db/OlaHsd mice were ordered group housed from Envigo RMS Inc., shipped group housed and remained group housed in shoebox caging with wood chip bedding until day 15 of the predose phase. At the study start mice were approximately 12 weeks old.
Mice were housed under vivarium conditions including a 12 h light/dark cycle (light phase 04:00 AM-4:00 PM), room temperatures between 23-26° C. and a relative humidity between 30-70%. All animals had free access to water and Purina Fomulab Diet 5008.
On predose day 9 blood glucose and body mass (approximately between 08:00-10:00 AM) as well as HbA1c measurements were performed. On day 15 of the predose phase animals were assigned to treatment groups (n=8) and to new cages to match mean HbA1c and body masses between all db/db groups. An age-matched lean group was included in the study as a healthy, lean reference.
Prior to day 1 of the dosing phase, the test article was diluted with Phosphate Buffered Saline (PBS, Gibco, without CaCl2 and MgCl2) to a concentration of 1 mg/mL and aliquots of this stock solution were stored at approximately ≤−60° C. On day 1 of the dosing phase the stock aliquot was thawed and the injected test article solution was prepared fresh by diluting it with PBS to achieve the desired concentration.
On Day 1 of the dosing phase db/db mice were either treated once with a s.c. injection of PBS-vehicle or 30 μg/kg test article. The lean reference group was treated once with a s.c. injection of PBS-vehicle. The dosing was initiated and completed between 08:00 and 10:00 AM. The applied volume was 5 ml/kg and the dose was adjusted to the most recent body mass recording of each individual.
Animals had unlimited access to water and feed during the experiment. On day 1 of the dosing phase approximately 5 μL of blood were collected via tail clips at minute −30 and 0 prior to any other inlife activities. At minute 0 mice received a s.c. dose of either PBS-vehicle or 30 μg/kg test article. Further blood samples were harvested at hour 0.25, 0.5, 1, 1.5, 2, 3, 4, 6, 8, and 24 post-dose. Glucose measurements were performed in whole blood using AlphaTRAK glucometers. If the glucose concentrations of two measurements differed by more than 20 mg/dL a third value was recorded. The Area Under the Curve (AUC) for blood glucose was calculated via the trapezoid method and for the duration of the 24 post-dose hours.
In the Figures data are depicted as means±SEM. […] A One Way Analysis of Variance and multiple comparisons (Dunnett's Method) were performed comparing the group of diabetic, obese db/db vehicle mice (n=8) with each diabetic, obese db/db test article treated mice (n=8). […] Non-diabetic, lean-vehicle group data are depicted in the Figures serving as a reference dataset for the non-obese, non-diabetic state.

Structure (SMILES) | mean blood glucose concentration 24 hours post-dose relative to baseline
CCCCCCCCCCCCCCCC(=O)N[C@@H](CCC(=O)NCCCC[C@H](NC(=O)[C@H](CC(C)C)NC(=O)[C@H](CCCCN)NC(=O)[C@H](CO)NC(=O)[C@H](CC(C)C)NC(=O)[C@H](CC(=O)O)NC(=O)[C@H](CO)NC(=O)[C@@H](NC(=O)[C@H](Cc1ccccc1)NC(=O)[C@@H](NC(=O)CNC(=O)[C@H](Cc1c[nH]cn1)NC(=O)C(C)(C)NC(=O)[C@@H](N)Cc1c[nH]cn1)[C@@H](C)O)[C@@H](C)O)C(=O)N[C@@H](CCC(=O)O)C(=O)N[C@@H](CCC(=O)O)C(=O)N[C@@H](CCC(N)=O)C(=O)N[C@@H](CCCNC(=N)N)C(=O)N[C@@H](CCC(N)=O)C(=O)NC(C)(C)C(=O)N[C@@H](CCC(=O)O)C(=O)N[C@@H](Cc1ccccc1)C(=O)N[C@H](C(=O)N[C@@H](CCC(=O)O)C(=O)N[C@@H](Cc1c[nH]c2ccccc12)C(=O)N[C@@H](CC(C)C)C(=O)N[C@@H](CCCCN)C(=O)N[C@@H](C)C(=O)N[C@H](C)C(=O)NCC(=O)N1CCC[C@H]1C(=O)N1CCC[C@H]1C(=O)N[C@@H](CO)C(=O)NC(C)(C)C(=O)N[C@@H](CCCCN)C(=O)N1CCC[C@H]1C(=O)N1CCC[C@H]1C(=O)N1CCC[C@H]1C(=O)N[C@@H](CCCCN)C(N)=O)[C@@H](C)CC)C(=O)O [SEQ ID NO: 16, H-Aib-H-G-T-F-T-S-D-L-S-K-L-K[gGlu-Palm]-E-E-Q-R-Q-Aib-E-F-I-E-W-L-K-A-dAla-G-P-P-S-Aib-K-P-P-P-K-NH2] (H-H[Aib]HGTFTSDLSKLK([γGlu-Palmitoyl])EEQRQ[Aib]EFIEWLKA[dA]GPPS[Aib]KPPPK-NH2) | at or close to baseline
